Reference: PubChem BioAssay AID248 (DTP/NCI, 2004)
“And” between values parts separate entries of the source, which are not always exact repeats. Equal values may be shown once. Toxic doses and inconclusive results are not listed. No stated cut-off is given here; in the data, active means T/C of 150% or more; inactive means T/C below 125%.

Test system: L1210 leukemia ip in BDF1 mice, survival T/C
Assay: NCI In Vivo Anticancer Drug Screen. Data for tumor model L1210 Leukemia (intraperitoneal) in B6D2F1 (BDF1) mice
Settings: endpoint: mean survival time, higher = longer survival
Procedure, shortened: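 Tumor cells were implanted, animals were treated, and survival was followed. The result divides the treated measurement by the vehicle-control measurement.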

[1] = dose: 100.0 mg/kg/injection, schedule: Q01DX001 (ip), vehicle: carboxymethylcellulose (CMC)
[2] = dose: 200.0 mg/kg/injection, schedule: Q01DX001 (ip), vehicle: carboxymethylcellulose (CMC)
[3] = dose: 100.0 mg/kg/injection, schedule: Q04DX003 (ip), vehicle: saline with Tween-80
[4] = dose: 200.0 mg/kg/injection, schedule: Q04DX003 (ip), vehicle: saline with Tween-80
[5] = dose: 400.0 mg/kg/injection, schedule: Q04DX003 (ip), vehicle: saline with Tween-80
[6] = dose: 100.0 mg/kg/injection, schedule: Q01DX001 (ip), vehicle: saline
[7] = dose: 200.0 mg/kg/injection, schedule: Q01DX001 (ip), vehicle: saline
[8] = dose: 400.0 mg/kg/injection, schedule: Q01DX001 (ip), vehicle: saline
[9] = dose: 100.0 mg/kg/injection, schedule: Q04DX002 (ip), vehicle: Klucel (hydroxypropylcellulose) (HPC)
[10] = dose: 200.0 mg/kg/injection, schedule: Q04DX002 (ip), vehicle: Klucel (hydroxypropylcellulose) (HPC)
[11] = dose: 400.0 mg/kg/injection, schedule: Q04DX002 (ip), vehicle: Klucel (hydroxypropylcellulose) (HPC)
[12] = dose: 100.0 mg/kg/injection, schedule: Q04DX003 (ip), vehicle: saline
[13] = dose: 200.0 mg/kg/injection, schedule: Q04DX003 (ip), vehicle: saline
[14] = dose: 400.0 mg/kg/injection, schedule: Q04DX003 (ip), vehicle: saline
[15] = dose: 100.0 mg/kg/injection, schedule: Q01DX009 (ip), vehicle: other
[16] = dose: 200.0 mg/kg/injection, schedule: Q01DX009 (ip), vehicle: other
[17] = dose: 50.0 mg/kg/injection, schedule: Q01DX009 (ip), vehicle: Klucel (hydroxypropylcellulose) (HPC)
[18] = dose: 100.0 mg/kg/injection, schedule: Q01DX009 (ip), vehicle: Klucel (hydroxypropylcellulose) (HPC)
[19] = dose: 100.0 mg/kg/injection, schedule: Q01DX009 (ip), vehicle: saline with Tween-80
[20] = dose: 200.0 mg/kg/injection, schedule: Q01DX009 (ip), vehicle: saline with Tween-80
[21] = dose: 400.0 mg/kg/injection, schedule: Q01DX009 (ip), vehicle: saline with Tween-80

Measured: T/C

C=CC(C)NC(=S)NNC(=S)NC (stereo unspecified)
inactive: dose: 15.0 mg/kg/injection, schedule: Q01DX015 (ip), vehicle: carboxymethylcellulose (CMC) 95 % of control | dose: 30.0 mg/kg/injection, schedule: Q01DX015 (ip), vehicle: carboxymethylcellulose (CMC) 104 % of control | dose: 50.0 mg/kg/injection, schedule: Q01DX001 (ip), vehicle: carboxymethylcellulose (CMC) 104 % of control | dose: 60.0 mg/kg/injection, schedule: Q01DX015 (ip), vehicle: carboxymethylcellulose (CMC) 95 % of control | [1] 105 % of control | dose: 120.0 mg/kg/injection, schedule: Q01DX015 (ip), vehicle: carboxymethylcellulose (CMC) 98 % of control | [2] 109 % of control | dose: 240.0 mg/kg/injection, schedule: Q01DX015 (ip), vehicle: carboxymethylcellulose (CMC) 87 % of control and 89 % of control

CC(=O)OCC1OC(SP(C)C)C(OC(C)=O)C(OC(C)=O)C1OC(C)=O (stereo unspecified)
inactive: dose: 100.0 mg/kg/injection, schedule: Q01DX001 (ip), vehicle: Klucel (hydroxypropylcellulose) (HPC) 101 % of control | dose: 200.0 mg/kg/injection, schedule: Q01DX001 (ip), vehicle: Klucel (hydroxypropylcellulose) (HPC) 98 % of control | dose: 400.0 mg/kg/injection, schedule: Q01DX001 (ip), vehicle: Klucel (hydroxypropylcellulose) (HPC) 96 % of control

CCCCCCCC(=O)Nc1cc(C(F)(F)F)ccc1Cl
inactive: [3] 92 % of control | [4] 98 % of control | [5] 87 % of control

O=C(O)/C=C/c1cc(Br)sc1Br
inactive: [6] 96 % of control | [7] 107 % of control | [8] 88 % of control

O=C1OCC/C1=C/OCCCCCO/C=C1/CCOC1=O
inactive: [9] 106 % of control | [10] 97 % of control | [11] 90 % of control

Cc1ccc(Cc2c(C=O)nc(N)[nH]c2=O)c2ccccc12
inactive: [9] 90 % of control | [10] 97 % of control

CC(CO)NC(=O)c1ccc(N)cc1 (stereo unspecified)
inactive: [12] 107 % of control | [13] 100 % of control | [14] 102 % of control

CCC(C1CCC(O)CC1)C(CC)C1CCC(c2ccc(=O)oc2)C1 (stereo unspecified)
inactive: dose: 25.0 mg/kg/injection, schedule: Q04DX003 (ip), vehicle: saline 100 % of control | dose: 50.0 mg/kg/injection, schedule: Q04DX003 (ip), vehicle: saline 103 % of control | [12] 103 % of control

CCNCC#CCNCC
inactive: dose: 100.0 mg/kg/injection, schedule: Q01DX009 (ip), vehicle: saline 96 % of control | [12] 96 % of control | dose: 200.0 mg/kg/injection, schedule: Q01DX009 (ip), vehicle: saline 107 % of control | [13] 98 % of control | [14] 99 % of control

NC(=O)C[n+]1cccc(C(N)=O)c1
inactive: [12] 97 % of control | [13] 101 % of control | [14] 101 % of control

O=C(N=C=S)c1ccccc1
inactive: [15] 95 % of control | [16] 87 % of control | dose: 400.0 mg/kg/injection, schedule: Q01DX009 (ip), vehicle: other 89 % of control

O=C(Nc1cc(Cl)c(Oc2ccc(Cl)cc2)cc1S(=O)(=O)O)Nc1cccc(Cl)c1Cl
inactive: [17] 109 % of control | [18] 104 % of control

CC12CCC(O)C(C)(C)C1CCC1=C2CCC2(C)C(c3ccoc3)CCC12C (stereo unspecified)
inactive: dose: 50.0 mg/kg/injection, schedule: Q01DX001 (sc), vehicle: steriod suspending solution 111 % of control | dose: 100.0 mg/kg/injection, schedule: Q01DX001 (sc), vehicle: steriod suspending solution 115 % of control | dose: 200.0 mg/kg/injection, schedule: Q01DX001 (sc), vehicle: steriod suspending solution 105 % of control | dose: 400.0 mg/kg/injection, schedule: Q01DX001 (sc), vehicle: steriod suspending solution 109 % of control

CCOC(=O)C1=C(C)NC(=O)NC1c1ccc(N(CCCl)CCCl)cc1Cl (stereo unspecified)
inactive: dose: 25.0 mg/kg/injection, schedule: Q01DX009 (ip), vehicle: Klucel (hydroxypropylcellulose) (HPC) 102 % of control | [17] 98 % of control | [18] 111 % of control

CCCCCCCCCC(=O)NN1CCOCC1
inactive: [19] 105 % of control | [20] 89 % of control | [21] 89 % of control

C#CC[P+](c1ccccc1)(c1ccccc1)c1ccccc1
inactive: dose: 6.25 mg/kg/injection, schedule: Q01DX001 (ip), vehicle: saline 106 % of control | dose: 12.5 mg/kg/injection, schedule: Q01DX001 (ip), vehicle: saline 109 % of control | dose: 25.0 mg/kg/injection, schedule: Q01DX001 (ip), vehicle: saline 116 % of control and 118 % of control

NC(N)=N/N=C/c1ccccc1C(=O)O
inactive: dose: 62.5 mg/kg/injection, schedule: Q01DX Z (ip), vehicle: saline 106 % of control | dose: 125.0 mg/kg/injection, schedule: Q01DX Z (ip), vehicle: saline 106 % of control | dose: 250.0 mg/kg/injection, schedule: Q01DX Z (ip), vehicle: saline 101 % of control | dose: 500.0 mg/kg/injection, schedule: Q01DX Z (ip), vehicle: saline 100 % of control

CCOc1ccccc1NC(=O)C(Br)C(Br)C(=O)O (stereo unspecified)
inactive: [19] 96 % of control | [3] 100 % of control | [20] 97 % of control | [4] 95 % of control | [21] 96 % of control | [5] 101 % of control

CC1(c2ccc3ccccc3c2)OCC2(CCCCC2)CO1
inactive: dose: 50.0 mg/kg/injection, schedule: Q04DX002 (ip), vehicle: Klucel (hydroxypropylcellulose) (HPC) 93 % of control | [9] 100 % of control | [10] 100 % of control | [11] 96 % of control and 97 % of control

Cc1cccc(C)c1N=C=O
inactive: [15] 93 % of control | [3] 105 % of control | [16] 106 % of control | [4] 100 % of control | [5] 109 % of control

CCC(C#N)C1C=CCCC1 (stereo unspecified)
inactive: dose: 75.0 mg/kg/injection, schedule: Q01DX001 (ip), vehicle: other 107 % of control | dose: 150.0 mg/kg/injection, schedule: Q01DX001 (ip), vehicle: other 107 % of control

CC1(C)Cc2cccc(C(=O)CCCN3CCCCC3)c2O1
inactive: [6] 104 % of control

CN1NCc2cncnc21
inactive: dose: 50.0 mg/kg/injection, schedule: Q01DX001 (ip), vehicle: saline 97 % of control | [6] 103 % of control | [7] 101 % of control | [8] 103 % of control

O=C(Nc1ccc(Cl)cc1)c1cccnc1
inactive: [19] 95 % of control | [3] 96 % of control | [20] 97 % of control | [4] 98 % of control | [5] 91 % of control

CCCCCCCCCCCCCCCc1ccc([N+](=O)[O-])c(O)c1
inactive: dose: 100.0 mg/kg/injection, schedule: Q04DX003 (ip), vehicle: other 98 % of control | dose: 200.0 mg/kg/injection, schedule: Q04DX003 (ip), vehicle: other 101 % of control | dose: 400.0 mg/kg/injection, schedule: Q04DX003 (ip), vehicle: other 101 % of control

COc1ccc(OC(C)=O)c(/C=C\C=O)c1
inactive: [1] 94 % of control | [2] 100 % of control | dose: 400.0 mg/kg/injection, schedule: Q01DX001 (ip), vehicle: carboxymethylcellulose (CMC) 100 % of control
